Patent publication US11590129B2, “Combination therapy with an antitumor alkaloid” (PHARMA MAR, S.A., priority 2010, dated 2023)
Like-named read-outs stand apart in the source and are kept apart here.

What was measured:
[1] = test system: HT-29 human colon adenocarcinoma cell line; test: cells
Experimental: (§1) a. […] Briefly, cells were harvested and seeded in 96 well microtiter plates at a density of 5,000 cells in 150 μL of culture medium and incubated for 24 hours in drug-free medium before treatment with vehicle alone or test compounds for 72 h.
(§2) The cytotoxic effect was measured by the MTT reduction assay, in which 3-(4,5-Dimethylthiazol-2-yl)-2,5-diphenyltetrazolium bromide, a tetrazole, which is reduced to purple formazan in the mitochondria of living cells, was used. MTT (50 μL of 1 mg/mL stock solution) was added to the wells and incubated for 8 hours at 37° C. until formazan crystals were formed. After gently removing the culture medium, DMSO was added to dissolve the insoluble purple formazan product into a colored solution. […] Results were expressed as percentage of control cell growth.
(§3) b. In a second set of assays, A549 human tumor cells were incubated with PM01183 in combination with each of the agents mentioned above.
(§4) As a visual aid, response values were plotted on a scatter plot with dose ratios given on the x-axis and % response values on the y-axis. […] In cases where response values at the two endpoints were approximately equivalent, points lying above or below this predicted line of additivity could be interpreted as representing antagonistic or synergistic drug interaction, respectively.
(§5) Additional serial dilutions were prepared in serum-free culture medium to achieve a final 4× concentration. Aliquots of 50 μL of each diluted compound were added per well.
HT-29 was the human colon adenocarcinoma cell line selected for this assay.

[2] = test system: HepG2 human hepatocellular liver carcinoma cell line; test: MTT cytotoxicity assay in HepG2 cells: IC50 of single agents and combinations with PM01183; assay type: cell-based
Experimental: as §1, §2, §3, §4, §5
HepG2 was the human hepatocellular liver carcinoma cell line selected for this assay.

[3] = test system: PC-3 human prostate cancer cell line; test: cells
Experimental: as §1, §2, §3, §4, §5
PC-3 was the human prostate adenocarcinome cell line selected for this assay.

[4] = test system: A673 human rhabdomyosarcoma cell line; test: cells; conditions: Homo sapiens, A673, 72 h
Experimental: as §1, §2, §3, §4, §5
A673 was the human rhabdomyosarcoma cell line selected for this assay.

[5] = test system: IGROV-1 human ovarian adenocarcinoma cell line; test: cells
Experimental: as §1, §2, §3, §4, §5
IGROV-1 was the human ovarian adenocarcinoma cell line selected for this assay.

[6] = test system: MDA-MB-231 human breast adenocarcinoma cell line; test: cells
Experimental: as §1, §2, §3, §4, §5

[7] = test system: RXF-393 human kidney carcinoma cell line; test: cells
Experimental: as §1, §2, §3, §4, §5

[8] = test system: HGC-27 human gastric carcinoma cell line; test: cells
Experimental: as §1, §2, §3, §4, §5
HGC-27 was the human gastric carcinoma cell line selected for this assay.

[9] = test system: SK-MEL-2 human melanoma cell line; test: cells
Experimental: as §1, §2, §3, §4, §5
SK-MEL-2 was the human melanoma cell line selected for this assay.

[10] = test system: PANC-1 human pancreatic carcinoma cell line; test: cells
Experimental: as §1, §2, §3, §4, §5
PANC-1 was the human pancreatic carcinoma cell line selected for this assay.

[11] = test system: RAMOS human lymphoma cell line; test: cells; conditions: Homo sapiens, Ramos, 72 h
Experimental: Briefly, cells were seeded in 96 well microtiter plates at a density of 50000 cells per well in 150 μL of culture medium and incubated for 4-6 hours in drug-free medium before treatment with vehicle alone or test compounds for 72 hours.
After incubation, the cytotoxic effect was evaluated using a MTT reduction assay. 50 μL of MTT solution (1 mg/mL) were added to the wells and incubated for 15-17 hours at 37° C. until formazan crystals were formed. After gently removing the culture medium, DMSO was added to dissolve the insoluble purple formazan product into a colored solution. […] Results were expressed as percentage of control cell growth. The EC50 values (half-maximal effective concentration) used for the combination studies were calculated using Prism v5.02 software (GraphPad). EC50 was expressed as molar concentration and represented the mean of at least three independent assays.
Using these starting concentrations, constant serial dilutions were performed to generate the concentration-response curves for each set of drugs, alone and in combination.
Based on this equation, the term “combination index” (CI) is used as a quantitative measure of the degree of drug interactions. […] CI values were calculated by solving the equation for different values of fa (i.e., for different degrees of cell groth inhibition).
Data were analyzed using CalcuSyn software (Biosoft, Cambridge, UK). For statistical analysis and graphs Prism software (GraphPad, San Diego, USA) was used. All the results represent the mean of at least three independent experiments.
as §5
In the second set of assays, concentration-response curves for the agents tested, both alone and in two-drug combination, were performed.

[12] = test system: U87-MG human glioblastoma cell line; test: cells
Experimental: as §1, §2, §3, §4, §5
U87-MG was the human glioblastoma cell line selected for this assay.

[13] = test system: HGC-27 tumors; test: Human gastric tumor xenografts (HGC-27) in athymic nude mice, tumor volume % T/C; assay type: in vivo
Experimental: (§6) Female athymic nude mice (Harlan Laboratories Models, S.L. (Barcelona, Spain) were utilized for all experiments. Animals were housed in individually ventilated cages, up to ten per cage in a 12-hour light-dark cycle at 21-23° C. and 40-60% humidity. The mice were allowed free access to irradiated standard rodent diet and sterilized water. Animals were acclimated for at least 5 days prior to tumor implantation with a tumor cell suspension.
HGC-27 cells were grown at 37° C. with 5% CO2 in Iscove's modified Dulbeco's medium (IDMD).
(§7) PM01183 was provided in the form of vials of lyophilized PM01183 cake which was reconstituted with water for infusion to a concentration of 0.2 mg/mL. The PM01183 stock solution was further diluted in 5% glucose solution for injection to the dosing formulation concentrations. Cisplatin and 5-fluorouracil were provided as solutions prepared by diluting the product with 0.9% saline solution for injection to the target final concentration.
(§8) Dose level groups were administered either as single agents or in combination.
(§9) Comparison of the median tumor volume in the treatment groups (T) to the median tumor volume in the control group (T/C×100%) was used for evaluation of the antitumor efficacy.

[14] = test system: A2780 tumors; test: Human ovarian tumor xenografts (A2780) in athymic nude mice, tumor volume % T/C; assay type: in vivo
Experimental: as §6
The formula to calculate volume for a prolate ellipsoid was used to estimate tumor volume (mm^3) from 2-dimensional tumor measurements: Tumor volume (mm^3)=[L×W^2]÷2, where L is the length and it is the longest diameter in mm, and W is the width and it is the shortest diameter in mm of a tumor. Assuming unit density, volume was converted to weight (i.e., 1 mm^3=1 mg). Tumor volume and animal body weights were measured 2-3 times per week starting form the first day of treatment (Day 0).
as §7, with “[…] Vinorelbine was” for “Cisplatin and 5-fluorouracil were”, “a solution” for “solutions”, “solution.” for “solution for injection to the target final concentration.”
as §8, §9
Day 9 for PM01183 and vinorelbine study) using the median-effect principle (Chou T. C. Pharmacol. Rev.

[15] = cisplatin 1.5 mg/kg iv days 0,7
[16] = cisplatin 3.0 mg/kg iv days 0,7
[17] = cisplatin 4.5 mg/kg iv days 0,7
[18] = cisplatin 6.0 mg/kg iv days 0,7
[19] = doxorubicin 2.0 mg/kg iv days 0,7
[20] = doxorubicin 4.0 mg/kg iv days 0,7
[21] = doxorubicin 6.0 mg/kg iv days 0,7
[22] = doxorubicin 8.0 mg/kg iv days 0,7

## Nc1ccn([C@@H]2O[C@H](CO)[C@@H](O)[C@@H]2O)c(=O)n1 [Cytarabine, cytarabine]
[1]; Homo sapiens, HT-29, 72 h
  IC50: 7.8 µM
[2]; Homo sapiens, HepG2, 72 h
  IC50: 20.6 µM
[3]; Homo sapiens, PC-3, 72 h
  IC50: 40 µM
[4]
  IC50: 0.197 µM
[5]; Homo sapiens, IGROV-1, 72 h
  IC50: 11.7 µM
[6]; Homo sapiens, MDA-MB-231, 72 h
  IC50: 9.57 µM
[7]; Homo sapiens, RXF 393, 72 h
  IC50: 50 µM
[8]; Homo sapiens, HGC-27, 72 h
  IC50: 50 µM
[9]; Homo sapiens, SK-MEL-2, 72 h
  IC50: 3.89 µM
[10]; Homo sapiens, PANC-1, 72 h
  IC50: 90 µM
[11]
  EC50: 0.0364 µM

## N.N.[Cl][Pt][Cl] [Cisplatin, cisplatin]
[1]; HT-29, 72 hours drug exposure, MTT
  IC50: 220 µM
[12]; U87-MG, 72 hours drug exposure, MTT
  IC50: 44 µM
[2]; HepG2, 72 hours drug exposure, MTT, read-out: IC50
  IC50: 50 µM
[3]; PC-3, 72 hours drug exposure, MTT
  IC50: 110 µM
[13]; [15]
  % T/C on day 0: 99.3%
  % T/C on day 3: 78.1%
  % T/C on day 5: 78.8%
  % T/C on day 7: 82.6%
  % T/C on day 10: 83.5%
  % T/C on day 12: 86.6%
  % T/C on day 14: 89.9%
[13]; [16]
  % T/C on day 0: 99.0%
  % T/C on day 3: 78.6%
  % T/C on day 5: 80.0%
  % T/C on day 7: 78.7%
  % T/C on day 10: 81.3%
  % T/C on day 12: 82.8%
  % T/C on day 14: 85.1%
[13]; [17]
  % T/C on day 0: 98.5%
  % T/C on day 3: 90.5%
  % T/C on day 5: 94.5%
  % T/C on day 7: 90.2%
  % T/C on day 10: 75.7%
  % T/C on day 12: 73.7%
  % T/C on day 14: 81.1%
[13]; [18]
  % T/C on day 0: 97.7%
  % T/C on day 3: 76.1%
  % T/C on day 5: 79.0%
  % T/C on day 7: 75.1%
  % T/C on day 10: 64.4%
  % T/C on day 12: 61.3%
  % T/C on day 14: 72.7%
[5]; IGROV-1, 72 hours drug exposure, MTT
  IC50: 70 µM
[6]; MDA-MB-231, 72 hours drug exposure, MTT
  IC50: 153 µM
[7]; RXF-393, 72 hours drug exposure, MTT
  IC50: 66.7 µM
[8]; HGC-27, 72 hours drug exposure, MTT
  IC50: 80 µM
[9]; SK-MEL-2, 72 hours drug exposure, MTT
  IC50: 160 µM
[10]; PANC-1, 72 hours drug exposure, MTT
  IC50: 147 µM

## COc1cccc2c1C(=O)c1c(O)c3c(c(O)c1C2=O)C[C@@](O)(C(=O)CO)C[C@@H]3O[C@H]1C[C@H](N)[C@H](O)[C@H](C)O1 [Doxorubicin, doxorubicin]
[14]; [19]
  % T/C on day 0: 99.8%
  % T/C on day 3: 91.5%
  % T/C on day 5: 93.1%
  % T/C on day 7: 94.2%
  % T/C on day 10: 86.2%
[14]; [20]
  % T/C on day 0: 102.0%
  % T/C on day 3: 82.9%
  % T/C on day 5: 75.1%
  % T/C on day 7: 75.0%
[14]; [21]
  % T/C on day 0: 99.4%
  % T/C on day 3: 71.0%
  % T/C on day 5: 60.3%
  % T/C on day 7: 56.8%
  % T/C on day 10: 54.3%
[14]; [22]
  % T/C on day 0: 99.5%
  % T/C on day 3: 60.8%
  % T/C on day 5: 49.8%
  % T/C on day 7: 48.1%
  % T/C on day 10: 39.4%
[1]; Homo sapiens, HT-29, 72 h
  IC50: 0.9 µM
[12]; Homo sapiens, U-87 MG, 72 h
  IC50: 0.3 µM
[2]; Homo sapiens, HepG2, 72 h
  IC50: 0.2 µM
[3]; Homo sapiens, PC-3, 72 h
  IC50: 1.48 µM
[5]; Homo sapiens, IGROV-1, 72 h
  IC50: 0.259 µM
[6]; Homo sapiens, MDA-MB-231, 72 h
  IC50: 0.6 µM
[7]; Homo sapiens, RXF 393, 72 h
  IC50: 0.8 µM
[8]; Homo sapiens, HGC-27, 72 h
  IC50: 0.054 µM
[9]; Homo sapiens, SK-MEL-2, 72 h
  IC50: 0.3 µM
[10]; Homo sapiens, PANC-1, 72 h
  IC50: 3.45 µM
